In data set [1] the test system is Plasmodium yoelii nigeriensis. The data set is described as follows: Antimalarial activity against blood stage multidrug-resistant Plasmodium yoelii nigeriensis infected swiss mouse assessed as protection […] at 24 mg/kg, po administered once daily for 3 days measured after 28 days by microscopy. Format: functional, organism-based.
The nature of data set [2]: Lipophilicity, logP of compound. Format: physicochemical. As to conditions: octanol/water.
Data set [3] has as its system Plasmodium yoelii nigeriensis. The data set is described as follows: Antimalarial activity against blood stage multidrug-resistant Plasmodium yoelii nigeriensis infected swiss mouse assessed as protection against Plasmodium yoelii nigeriensis infection at 12 mg/kg, po administered once daily for 3 days measured after 28 days by microscopy. Format: functional, organism-based.

In data set [4] the test system is Plasmodium yoelii nigeriensis. The data set is described as follows: Antimalarial activity against blood stage multidrug-resistant Plasmodium yoelii nigeriensis infected swiss mouse assessed as suppression of parasitaemia at 12 mg/kg, po administered once daily for 3 days measured on day 4 by microscopic analysis relative to control. Format: functional.
For data set [5], the system named is Plasmodium yoelii nigeriensis. The data set is described as follows: Antimalarial activity against blood stage multidrug-resistant Plasmodium yoelii nigeriensis infected swiss mouse assessed as protection […] at 24 mg/kg, po administered once daily for 3 days measured on day 4 and subsequently twice a week up to 28 days by microscopy. Format: functional.
The subject of data set [6] is Plasmodium yoelii nigeriensis. Kind of data set: Antimalarial activity against blood stage multidrug-resistant Plasmodium yoelii nigeriensis infected swiss mouse assessed as protection against Plasmodium yoelii nigeriensis infection at 48 mg/kg, po administered once daily for 3 days measured on day 4 and subsequently twice a week up to 28 days by microscopy. Format: functional.

Data set [7] concerns Plasmodium yoelii nigeriensis. The data set is described as follows: Antimalarial activity against blood stage multidrug-resistant Plasmodium yoelii nigeriensis infected swiss mouse assessed as suppression of parasitaemia at 24 mg/kg, po administered once daily for 3 days measured on day 4 by microscopic analysis relative to control. Format: functional.
Data set [8] has as its system Plasmodium yoelii nigeriensis. Kind of data set: Antimalarial activity against blood stage multidrug-resistant Plasmodium yoelii nigeriensis infected swiss mouse assessed as protection against Plasmodium yoelii nigeriensis infection at 12 mg/kg, po administered once daily for 3 days measured on day 4 and subsequently twice a week up to 28 days by microscopy. Format: functional.

Data set [9] deals with Plasmodium yoelii nigeriensis. The data set is described as follows: Antimalarial activity against blood stage multidrug-resistant Plasmodium yoelii nigeriensis infected swiss mouse assessed as suppression of parasitaemia at 48 mg/kg, po administered once daily for 3 days measured on day 4 by microscopic analysis relative to control. Format: functional.
Data set [10] concerns Plasmodium yoelii nigeriensis. The data set is described as follows: Antimalarial activity against blood stage multidrug-resistant Plasmodium yoelii nigeriensis infected swiss mouse assessed as protection against […] infection at 6 mg/kg, po administered once daily for 3 days measured on day 4 and subsequently twice a week up to 28 days by microscopy. Format: functional, organism-based.

Data set [11] has as its system Plasmodium yoelii nigeriensis. Kind of data set: Antimalarial activity against blood stage multidrug-resistant Plasmodium yoelii nigeriensis infected swiss mouse assessed as suppression of parasitaemia at 6 mg/kg, po administered once daily for 3 days measured on day 4 by microscopic analysis relative to control. Format: functional.
The test system of data set [12] is Plasmodium yoelii nigeriensis. The data set is described as follows: Antimalarial activity against blood stage multidrug-resistant Plasmodium yoelii nigeriensis infected swiss mouse assessed as protection against […] infection at 6 mg/kg, po administered once daily for 3 days measured after 28 days by microscopy. Format: functional, organism-based.

Calls of active or inactive are those of the source. The rule behind the calls is not given here.

The logP is the decadic logarithm of the partition coefficient of the neutral form, usually between octanol and water. A higher logP goes with a more lipophilic compound. One may read the inhibition in vivo as the percentage by which the read-out fell short of the control. As for `C[C@H]1[C@H](OC(=O)CC(c2ccc(Cl)cc2)c2ccc(Cl)cc2)O[C@@H]2O[C@@]3(C)CC[C@H]4[C@H](C)CC[C@@H]1[C@@]24OO3`, the result in data set [1], in [3] and in data set [8] was inactive. In data set [2], the logP was 8.27. Besides, the inhibition in vivo at 12 mg/kg in data set [4] came out at 96%. Further, the Activity in [5] and in data set [6] was 100% in each case. In data set [7], the inhibition in vivo at 24 mg/kg is 100%. In [9], the inhibition in vivo at 48 mg/kg was 100%.

As to `C[C@H]1[C@H](OC(=O)CC(c2ccccc2)c2ccccc2)O[C@@H]2O[C@@]3(C)CC[C@H]4[C@H](C)CC[C@@H]1[C@@]24OO3`, the outcome in [1], in data set [3] and in data set [8] was inactive. The compound also returned a logP in data set [2] of 7.15. The inhibition in vivo at 12 mg/kg in data set [4] came out at 100%. Moreover, the Activity in data set [5] and in data set [6] was 100% each time. Moreover, in [7], the inhibition in vivo at 24 mg/kg was 100%. Moreover, the inhibition in vivo at 48 mg/kg in [9] stood at 100%.

`CC(=O)O[C@@H]1O[C@@H]2O[C@@]3(C)CC[C@H]4[C@H](C)CC[C@@H]([C@H]1C)[C@@]24OO3` came in with a logP in data set [2] of 3.37. Also, the outcome in data set [5] was inactive. In data set [7], the inhibition in vivo at 24 mg/kg came to 99%. Moreover, in data set [9], the inhibition in vivo at 48 mg/kg is 100%.

Regarding `C[C@H]1[C@H](OC(=O)CC(c2ccc(Br)cc2)c2ccc(Br)cc2)O[C@@H]2O[C@@]3(C)CC[C@H]4[C@H](C)CC[C@@H]1[C@@]24OO3`, the result in [1], in data set [3] and in data set [8] was inactive. Moreover, in data set [2], the logP turned out to be 8.81. For the same compound, in [4], the inhibition in vivo at 12 mg/kg is 100%. Also, the Activity in data set [5] and in data set [6] was 100% each time. Further, the inhibition in vivo at 24 mg/kg in data set [7] was determined as 100%. Also, the inhibition in vivo at 48 mg/kg in data set [9] was 100%.

In turn, `CCCCCC(=O)O[C@@H]1O[C@@H]2O[C@@]3(C)CC[C@H]4[C@H](C)CC[C@@H]([C@H]1C)[C@@]24OO3` came in with a logP in data set [2] of 5.28. In addition, in data set [5], the outcome was inactive. The Activity in data set [6] was 100%. The inhibition in vivo at 24 mg/kg in data set [7] worked out at 100%. Also, the inhibition in vivo at 48 mg/kg in data set [9] worked out at 100%.

On to `C[C@H]1[C@H](OC(=O)CCc2ccccc2)O[C@@H]2O[C@@]3(C)CC[C@H]4[C@H](C)CC[C@@H]1[C@@]24OO3`, for which, in [2], the logP is 5.63. Further, in data set [6], the Activity worked out at 100%. Moreover, the inhibition in vivo at 24 mg/kg in [7] was 100%. Further, in [9], the inhibition in vivo at 48 mg/kg amounted to 100%.

For `C[C@H]1[C@H](OC(=O)CC(c2ccc(F)cc2)c2ccc(F)cc2)O[C@@H]2O[C@@]3(C)CC[C@H]4[C@H](C)CC[C@@H]1[C@@]24OO3`, the outcome in [10] and in data set [12] was inactive. For the same compound, the inhibition in vivo at 6 mg/kg in data set [11] was determined as 100%. This compound returned a logP in data set [2] of 7.47. Moreover, the inhibition in vivo at 12 mg/kg in data set [4] was found to be 100%. Also, the Activity is 100% in [5], 100% in data set [6] and 80% in data set [8]. In data set [7], the inhibition in vivo at 24 mg/kg was determined as 100%. Also, the inhibition in vivo at 48 mg/kg in data set [9] came out at 100%.

On to `CCCCCCC(=O)O[C@@H]1O[C@@H]2O[C@@]3(C)CC[C@H]4[C@H](C)CC[C@@H]([C@H]1C)[C@@]24OO3`, for which the logP in data set [2] came to 5.7. For the same compound, the Activity in [6] was found to be 100%. For the same compound, the inhibition in vivo at 24 mg/kg in data set [7] came out at 100%. In addition, the inhibition in vivo at 48 mg/kg in data set [9] was 100%.

For `C[C@H]1[C@H](OC(=O)C(c2ccccc2)c2ccccc2)O[C@@H]2O[C@@]3(C)CC[C@H]4[C@H](C)CC[C@@H]1[C@@]24OO3`, the result in [10] and in data set [12] was inactive. The inhibition in vivo at 6 mg/kg in data set [11] is 100%. In data set [2], this compound gave a logP of 6.97. Besides, the inhibition in vivo at 12 mg/kg in data set [4] stood at 100%. Besides, the Activity in [5], in data set [6] and in [8] was 100% in each case. Further, the inhibition in vivo at 24 mg/kg in data set [7] came to 100%. The inhibition in vivo at 48 mg/kg in data set [9] is 100%.

Consider `COc1ccc(C(CC(=O)O[C@@H]2O[C@@H]3O[C@@]4(C)CC[C@H]5[C@H](C)CC[C@@H]([C@H]2C)[C@@]35OO4)c2ccc(OC)cc2)cc1`, for which the result in [10] and in data set [12] was inactive. For the same compound, the inhibition in vivo at 6 mg/kg in data set [11] came out at 100%. Also, in data set [2], the logP was 6.9. In addition, the inhibition in vivo at 12 mg/kg in data set [4] amounted to 100%. Moreover, the results for the Activity in data set [5], in [6] and in data set [8] were 100%, 100% and 80%, respectively. In data set [7], the inhibition in vivo at 24 mg/kg amounted to 100%. Also, the inhibition in vivo at 48 mg/kg in [9] was determined as 100%.

The record behind these values is ChEMBL document CHEMBL3774322, “New orally active diphenylmethyl-based ester analogues of dihydroartemisinin: Synthesis and antimalarial assessment against multidrug-resistant Plasmodium yoelii nigeriensis in mice” (Bioorg Med Chem Lett, 2016).
